{"source": "patent US20150141375A1", "about": "(priority 2009, published 2015)", "key": {"[1]": {"assay": "RPTEC DNA replication (BrdU), metabolic activity (WST-1), proliferation (xCELLigence)", "assay_type": "cell-based, human", "details": "human; BKV-infected RPTECs; read-out: CC-90 (BrdU incorporation reduced to approximately 10% of untreated infected cells)", "method": "(§1) RPTECs were infected with BKV(Dunlop). CMX001 was added before and 2 h postinfection (hpi). Cells and supernatants were harvested 24-72 hpi. BKV replication was examined by TaqMan assays, western blotting, IF staining and viability of RPTECs was examined by WST-1 assay, BrdU incorporation and a TaqMan assay.\n(§2) To use more sensitive assays, host cell DNA replication and metabolic activity using BrdU incorporation and WST-1 assays in uninfected RPTECs were used. Addition of CMX001 reduced both DNA replication (FIG. 2a) and metabolic activity (FIG. 2b) of uninfected RPTECs in a concentration-dependent manner. Compared to untreated RPTECs, CMX001 at 0.08 to 10 μM decreased DNA replication by 15% to 93% and the metabolic activity by 41% to 88%, respectively.\n(§3) The mitocondrial metabolic activity was monitored by the colorimetric WST-1 assay (Roche, Rotkreuz, Switzerland) measuring reduction of the Tetrazolium salt, WST-1, by mitochondrial dehydrogenases. DNA synthesis was quantified by colorimetric measurement of BrdU incorporation into DNA using the “Cell proliferation ELISA, BrdU” kit (Roche). The attachment and proliferation of the cells was measured as impedance using E-plates and the xCelligence system (Roche). In order for the RPTECs to attach and proliferate on the E-plates, the plates were first coated with fibronectin. Next the background impedance of the plates was monitored by addition of 100 μl medium to each well, before the plate was connected to the system and checked in the cell culture incubator for proper electrical-contacts. Subsequently, 100 μl cell suspension containing the indicated cell numbers was seeded. To determine the effect of BKV infection and CMX001 treatment, about 24 h after seeding 150 μl of the media was replaced with fresh media with or without purified BKV-Dunlop in the presence or absence of CMX001 (final concentration of 0.31 μM). The cells were grown for 96 h and impedance was measured every 15 minutes for the first 6 h then every 30 minutes. Impedance was expressed as an arbitrary unit called the Cell Index."}, "RPTECs": {"test_system": "RPTECs", "assay": "RPTEC DNA replication (BrdU), metabolic activity (WST-1), proliferation (xCELLigence)", "assay_type": "cell-based, human", "details": "for reduction of rate of RPTEC proliferation (xCelligence): CMX001 0.31 μM, 48 h postexposure", "method": "as §1, §2, §3"}, "PK comparison, rabbit": {"assay": "PK comparison, rabbit", "details": "in vivo, 2 mg/kg, calculated from doses of 5 and 10 mg/kg, analyte = label, after CMX001", "description": "Table 4 illustrates the PK comparison of CMX001 with CMX021 and CMX064 for mouse, rabbit and human."}, "Adenovirus": {"test_system": "Adenovirus", "assay": "microbe, parasite or virus in culture", "assay_type": "cell-based", "details": "for EC50: unidentified adenovirus"}, "HCMV (AD169)": {"test_system": "HCMV (AD169)", "assay": "HCMV real time array of viral transcripts", "assay_type": "cell-based", "details": "CDV 50 μM, GCV 15 μM, CMX001 0.5 μM; ANOVA P<0.05"}, "HCMV(AD169)": {"test_system": "HCMV(AD169)", "assay": "In vitro potency against dsDNA viruses: HCMV", "assay_type": "cell-based"}, "AdV 5": {"test_system": "AdV 5", "set-up": "species or system Syrian Hamster", "details": "hamster, in vivo"}}, "data": [{"compound": "CCCCCCCCCCCCCCCCOCCCOP(=O)(O)CO[C@H](CO)Cn1ccc(N)nc1=O", "note": "[CMX001, Hexadecyloxypropyl-cidofovir]", "values": [{"measurement": "CC90", "setting": "[1]", "value": 10000, "unit": "nM"}, {"measurement": "reduction of rate of RPTEC proliferation (xCelligence)", "setting": "RPTECs; exponentially growing BKV infected cells", "value": "approximately 35%"}, {"measurement": "reduction of rate of RPTEC proliferation (xCelligence)", "setting": "RPTECs; exponentially growing uninfected cells", "value": "approximately 25%"}, {"measurement": "SI-90", "setting": "RPTECs; estimated, RPTECs", "value": 62.5}, {"measurement": "AUC", "setting": "PK comparison, rabbit", "value": 102, "unit": "ng·h/mL"}, {"measurement": "Cmax", "setting": "PK comparison, rabbit", "value": 18, "unit": "ng/mL"}, {"measurement": "average reduction in CMV by PCR", "setting": "CMV; 2 of 5 patients without UL54 mutations", "value": 1.2, "unit": "log 10"}, {"measurement": "median reduction in VL", "setting": "CMV; 4 weeks, 7 patients", "value": "greater than 1.2 log 10"}, {"measurement": "1 log reduction in viremia at the last time point", "setting": "CMV; patients with UL54 mutation (L501F and A987G)", "value": "Neither of two patients"}, {"measurement": "complete response", "setting": "CMV; patients without mutations in CMV UL54 (3 of 5)", "value": 60, "unit": "%"}, {"measurement": "dose adjustment for kidney function", "setting": "CMV; two patients with pre-existing renal insufficiency", "value": "no dose adjustment was needed based on kidney function"}, {"measurement": "fold more activity compared to cidofovir", "setting": "Adenovirus; AdV 31", "value": 5, "unit": "fold"}, {"measurement": "EC50", "setting": "Adenovirus; AdV 31", "value": 280, "unit": "nM"}, {"measurement": "EC50", "setting": "Adenovirus; majority of adenovirus serotypes", "value": "< 50", "unit": "nM"}, {"measurement": "levels of viral transcripts", "setting": "HCMV (AD169)", "value": "Significant reductions in levels of most viral transcripts"}, {"measurement": "Enhanced Activity", "setting": "HCMV(AD169); CMX001 versus cidofovir EC50", "value": 422}, {"measurement": "EC50", "setting": "HCMV(AD169); Human betaherpesvirus 5, AD169, MRC5, MRC-5", "value": 0.9, "unit": "nM"}, {"measurement": "reduction of infectious AdV5 titers in liver", "setting": "AdV 5", "value": 6, "unit": "logs"}]}]}
